Test results from patent publication US10508085B2, “Compounds and methods for IDO and TDO modulation, and indications therefor” (Plexxikon Inc., priority 2016, dated 2019).

Columns and labels:
[1] = biological target: T1, Human Indoleamine 2,3-dioxygenase (IDO) (Homo sapiens, UniProt P14902); experiment: Human IDO enzymatic assay (kynurenine level); format: biochemical; conditions: 6 nM IDO, 10 μM L-Trp; geometric mean; read-out: IDO1 GMean: IC50 (μM) (Biochemical Assay)
T1 construct: His tag (N); made in house; host or cells: E. coli
T1 sequence (P14902 whole entry): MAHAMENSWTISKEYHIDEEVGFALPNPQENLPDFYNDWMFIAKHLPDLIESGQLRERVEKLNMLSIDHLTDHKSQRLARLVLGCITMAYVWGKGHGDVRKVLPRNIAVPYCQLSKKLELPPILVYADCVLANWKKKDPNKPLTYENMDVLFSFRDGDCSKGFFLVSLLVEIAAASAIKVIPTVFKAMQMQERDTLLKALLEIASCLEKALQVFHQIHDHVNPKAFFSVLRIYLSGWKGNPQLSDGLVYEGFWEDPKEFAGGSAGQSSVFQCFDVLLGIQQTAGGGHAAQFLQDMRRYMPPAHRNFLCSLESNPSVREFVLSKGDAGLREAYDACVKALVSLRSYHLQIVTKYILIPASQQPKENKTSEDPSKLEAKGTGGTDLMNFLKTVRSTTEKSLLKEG
Summary of the method: (§1)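 Kynurenine formed is measured after TCA quench and 50 °C hydrolysis, with % inhibition against full-reaction and no-enzyme controls (5% DMSO). IDO: 6 nM enzyme, 10 μM L-Trp, 5 μM methylene blue, 20 min; TDO: 1 nM, 350 μM L-Trp, 0.4 μM methylene blue, 70 min; both pH 6.5, room temp, E. coli-expressed His-tagged.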

[2] = biological target: T2, Human Tryptophan 2,3-dioxygenase (TDO) (Homo sapiens, UniProt P48775); experiment: Human TDO enzymatic assay (kynurenine level); format: biochemical; conditions: 1 nM TDO, 350 μM L-Trp; geometric mean; read-out: TDO GMean: IC50 (μM) (Biochemical Assay)
T2 construct: His tag (N); made in house; host or cells: E. coli
T2 sequence (P48775 whole entry): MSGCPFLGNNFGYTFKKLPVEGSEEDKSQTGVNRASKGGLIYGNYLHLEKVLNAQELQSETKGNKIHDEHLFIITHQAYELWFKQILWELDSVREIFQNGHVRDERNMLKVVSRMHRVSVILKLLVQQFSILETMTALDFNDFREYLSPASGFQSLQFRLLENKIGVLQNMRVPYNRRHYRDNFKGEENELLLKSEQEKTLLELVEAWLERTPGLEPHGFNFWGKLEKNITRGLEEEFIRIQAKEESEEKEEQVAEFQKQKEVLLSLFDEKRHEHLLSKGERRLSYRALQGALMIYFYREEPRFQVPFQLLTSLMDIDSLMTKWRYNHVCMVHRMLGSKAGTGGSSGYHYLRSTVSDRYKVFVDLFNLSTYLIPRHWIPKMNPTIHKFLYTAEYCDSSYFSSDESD
Summary of the method: as §1

[3] = biological target: T3, human IDO (IDO1-expressing HEK293 cells) (Homo sapiens, UniProt P14902); experiment: Cell based kynurenine assay, IDO1-expressing HEK293 cell clones; conditions: IDO1-expressing HEK293 cells, 24 hours incubation; geometric mean; read-out: HEK293 IDO1 Kynurenine GMean IC50 (μM) (Cellular Assay)
T3 construct: expressed in transfected cells
T3 sequence (P14902 whole entry): as the sequence (P14902 whole entry) above
Summary of the method: (§2)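 Supernatant kynurenine was measured after 24 h exposure of stably transfected HEK293 cells (human IDO1 or TDO, 2.5×10^4/well) to serially diluted compound. Percent inhibition used 0.2% DMSO cell wells as high and media-only wells as low controls; IC50 fitted by nonlinear regression.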

[4] = biological target: T4, human TDO (TDO-expressing HEK293 cells) (Homo sapiens, UniProt P48775); experiment: Cell based kynurenine assay, TDO-expressing HEK293 cell clones; conditions: TDO-expressing HEK293 cells, 24 hours incubation; geometric mean; read-out: HEK293 TDO Kynurenine GMean IC50 (μM) (Cellular Assay)
T4 construct: expressed in transfected cells
T4 sequence (P48775 whole entry): as the sequence (P48775 whole entry) above
Summary of the method: as §2

Structure (SMILES) | IC50 [1] [µM] | IC50 [2] [µM] | IC50 [3] [µM] | IC50 [4] [µM]
COC(=O)N1CC2CCC(C1)C2CC(O)c1cc(Cl)cc2cn[nH]c12 (stereo not drawn) [Compound P-0329, methyl 8-(2-(5-chloro-1H-indazol-7-yl)-2-hydroxyethyl)-3-azabicyclo [3.2.1]octane-3-carboxylate] | 0.0001 to 10 | 0.0001 to 10 | 0.0001 to 10 | 0.0001 to 10
CNS(=O)(=O)N1CCC(C(F)(F)C(O)c2cc(Cl)cc3cn[nH]c23)CC1 (stereo not drawn) [Compound P-0330, 4-(2-(5-chloro-1H-indazol-7-yl)-1,1-difluoro-2-hydroxyethyl)-N-methylpiperidine-1-sulfonamide] | 0.0001 to 10 | 0.0001 to 10 | 0.0001 to 10 | 0.0001 to 10
CCNS(=O)(=O)N1CCC(C(F)(F)C(O)c2cc(Cl)cc3cn[nH]c23)CC1 (stereo not drawn) [Compound P-0331, 4-(2-(5-chloro-1H-indazol-7-yl)-1,1-difluoro-2-hydroxyethyl)-N-ethylpiperidine-1-sulfonamide] | 0.0001 to 10 | 0.0001 to 10 | 0.0001 to 10 | 0.0001 to 10
CC(C)NS(=O)(=O)N1CCC(C(F)(F)C(O)c2cc(Cl)cc3cn[nH]c23)CC1 (stereo not drawn) [Compound P-0332, 4-(2-(5-chloro-1H-indazol-7-yl)-1,1-difluoro-2-hydroxyethyl)-N-isopropylpiperidine-1-sulfonamide] | 0.0001 to 10 | 0.0001 to 10 | 0.0001 to 10 | 0.0001 to 10
O=C(NCC(F)(F)F)N1CCC(C(F)(F)C(O)c2cc(Cl)cc3cn[nH]c23)CC1 (stereo not drawn) [Compound P-0333, 4-(2-(5-chloro-1H-indazol-7-yl)-1,1-difluoro-2-hydroxyethyl)-N-(2,2,2-trifluoroethyl) piperidine-1-carboxamide] | 0.0001 to 10 | 0.0001 to 10 | 0.0001 to 10 | 0.0001 to 10
O[C@H](c1c(F)c(Cl)cc2cn[nH]c12)C12CCC(CC1)CC2 [Compound P-0334, (S)-bicyclo[2.2.2]octan-1-yl(5-chloro-6-fluoro-1H-indazol-7-yl)methanol] | 0.0001 to 10 | 0.0001 to 10 | 0.0001 to 10 | 0.0001 to 10
O[C@@H](c1c(F)c(Cl)cc2cn[nH]c12)C12CCC(CC1)CC2 [Compound P-0335, (R)-bicyclo[2.2.2]octan-1-yl(5-chloro-6-fluoro-1H-indazol-7-yl)methanol] | 0.0001 to 10 | 0.0001 to 10 | 0.0001 to 10 | > 10
OC1(c2cc(Cl)cc3[nH]ncc23)CC2(CCC2)C1 [Compound P-0336, 2-(6-chloro-1H-indazol-4-yl)spiro[3.3] heptan-2-ol] | 10 to 100 | 0.0001 to 10 | > 10 | 0.0001 to 10
CC(C)(C)OC(=O)N1CCC(C(C)(C)[C@H](O)c2cc(Cl)cc3cn[nH]c23)CC1 [Compound P-0337, tert-butyl (S)-4-(1-(5-chloro-1H-indazol-7-yl)-1-hydroxy-2-methylpropan-2-yl)piperidine-1-carboxylate] | 0.0001 to 10 | 0.0001 to 10 | 0.0001 to 10 | 0.0001 to 10
CC(C)(C)OC(=O)N1CCC(C(C)(C)[C@@H](O)c2cc(Cl)cc3cn[nH]c23)CC1 [Compound P-0338, tert-butyl (R)-4-(1-(5-chloro-1H-indazol-7-yl)-1-hydroxy-2-methylpropan-2-yl)piperidine-1-carboxylate] | 0.0001 to 10 | 0.0001 to 10 | > 10 | 0.0001 to 10
CC(C)(C1CCN(C(=O)Nc2ccc(F)cc2)CC1)[C@@H](O)c1cc(Cl)cc2cn[nH]c12 [Compound P-0339, (R)-4-(1-(5-chloro-1H-indazol-7-yl)-1-hydroxy-2-methylpropan-2-yl)-N-(4-fluorophenyl) piperidine-1-carboxamide] | 0.0001 to 10 | 0.0001 to 10 | 0.0001 to 10 | 0.0001 to 10
CC(C)(C(O)c1cc(Cl)cc2cn[nH]c12)[C@H]1C[C@H]2CC[C@@H](C1)N2C(N)=O (stereo partly drawn) [Compound P-0340] | 0.0001 to 10 | 0.0001 to 10 | 0.0001 to 10 | 0.0001 to 10
O=C(c1cccnc1)N1CCC(C(F)(F)C(O)c2c(F)c(Cl)cc3cn[nH]c23)CC1 (stereo not drawn) [Compound P-0341, (4-(2-(5-chloro-6-fluoro-1H-indazol-7-yl)-1,1-difluoro-2-hydroxyethyl)piperidin-1-yl)(pyridin-3-yl)methanone] | 0.0001 to 10 | 0.0001 to 10 | 0.0001 to 10 | 0.0001 to 10
COC(=O)N1CCC(C(F)(F)C(O)c2c(F)c(Cl)cc3cn[nH]c23)CC1 (stereo not drawn) [Compound P-0342, methyl 4-(2-(5-chloro-6-fluoro-1H-indazol-7-yl)-1,1-difluoro-2-hydroxyethyl) piperidine-1-carboxylate] | 0.0001 to 10 | 0.0001 to 10 | 0.0001 to 10 | 0.0001 to 10
O=C(C1CC1)N1CCC(C(F)(F)C(O)c2c(F)c(Cl)cc3cn[nH]c23)CC1 (stereo not drawn) [Compound P-0343, (4-(2-(5-chloro-6-fluoro-1H-indazol-7-yl)-1,1-difluoro-2-hydroxyethyl)piperidin-1-yl)(cyclopropyl) methanone] | 0.0001 to 10 | 0.0001 to 10 | 0.0001 to 10 | 0.0001 to 10
CC(C)(C1CCN(C(=O)Nc2ccc(F)cc2)CC1)[C@H](O)c1cc(Cl)cc2cn[nH]c12 [Compound P-0344, (S)-4-(1-(5-chloro-1H-indazol-7-yl)-1-hydroxy-2-methylpropan-2-yl)-N-(4-fluorophenyl)piperidine-1-carboxamide] | 0.0001 to 10 | 0.0001 to 10 | 0.0001 to 10 | 0.0001 to 10
NS(=O)(=O)N1CCC(C(F)(F)C(O)c2cc(Cl)cc3cn[nH]c23)CC1 (stereo not drawn) [Compound P-0345, 4-(2-(5-chloro-1H-indazol-7-yl)-1,1-difluoro-2-hydroxyethyl) piperidine-1-sulfonamide] | 0.0001 to 10 | 0.0001 to 10 | 0.0001 to 10 | 0.0001 to 10
NC(=O)N1CCC2(CC1)CC(O)(c1cc(Cl)cc3cn[nH]c13)C2 [Compound P-0346, 2-(5-chloro-1H-indazol-7-yl)-2-hydroxy-7-azaspiro[3.5] nonane-7-carboxamide] | 0.0001 to 10 | 0.0001 to 10 | 0.0001 to 10 | 0.0001 to 10
CC(C)(C(O)c1cc(Cl)cc2cn[nH]c12)[C@H]1C[C@H]2CC[C@@H](C1)N2S(N)(=O)=O (stereo partly drawn) [Compound P-0347, (1R,3r,5S)-3-(1-(5-chloro-1H-indazol-7-yl)-1-hydroxy-2-methylpropan-2-yl)-8-azabicyclo[3.2.1] octane-8-sulfonamide] | 0.0001 to 10 | 0.0001 to 10 | 0.0001 to 10 | 0.0001 to 10
COC12CCC(C(O)c3cc(Cl)cc4[nH]ncc34)(CC1)CC2 (stereo not drawn) [Compound P-0348, (6-chloro-1H-indazol-4-yl)(4-methoxybicyclo [2.2.2]octan-1-yl)methanol] | 0.0001 to 10 | 0.0001 to 10 | > 10 | 0.0001 to 10
O=C(C1CCC1)N1CCC(C(F)(F)C(O)c2cc(Cl)cc3cn[nH]c23)CC1 (stereo not drawn) [Compound P-0349, (4-(2-(5-chloro-1H-indazol-7-yl)-1,1-difluoro-2-hydroxyethyl)piperidin-1-yl)(cyclobutyl) methanone] | 0.0001 to 10 | 0.0001 to 10 | 0.0001 to 10 | 0.0001 to 10
